Results on seven molecules are retold here after patent US10253002B2, “Compounds and methods of treating infections” (Neoculi Pty Ltd., priority 2013, dated 2019).

Several values for one entry are separate records, joined by “and”; a condition that tells them apart may be missing. Equal values may be shown once.

For assay [1], the system named is S. aureus isolates (HA-MRSA, CA-MRSA, methicillin-susceptible staphylococci). As to the kind of experiment: Kirby-Bauer disc diffusion resistotyping, Example 4. It is filed as cell-based, Staphylococcus aureus. The following applies: for Total isolates resistant (Kirby-Bauer disc diffusion): all isolates (n = 30). How it is done:
Antibiotic-susceptibility profiling of the isolate collection was undertaken using Kirby-Bauer disc diffusion, as recommended by the Clinical and Laboratory Standards Institute (CLSI) on Mueller-Hinton agar. Isolates were grown overnight on SBA at 37° C. Colonies were suspended in physiological saline. Turbidity was adjusted to a 0.5 McFarland standard and suspensions were spread over the medium. Antibiotic discs according to Table 9 below were transferred onto the inoculated medium and analysed after 24 h incubation at 37° C.
(In agar diffusion tests the substance spreads into inoculated agar from a disc or well.)

The test system of a further assay is S. pneumoniae isolates. As to the kind of experiment: Disk diffusion susceptibility (CLSI/EUCAST), Example 5. It is filed as cell-based, Streptococcus pneumoniae. As for the experimental part:
Isolate susceptibility to 12 different antimicrobials (Table 16) was determined by CLSI and European Committee on Antimicrobial Susceptibility Testing (EUCAST) methods. Antimicrobials were selected based upon the CLSI and EUCAST guidelines. Standardised bacterial suspensions were spread onto MHSBA using a sterile cotton swab. Bacterial suspensions from of Streptococcus pneumoniae were standardised to an OD6O0 between 0.08 and 0.1 using a spectrophotometer and then diluted 1:20. Bacterial colonies were taken from an O/N horse blood agar plate. To ensure the purity of the 1:20 bacterial suspension, 50 μL was spread plated onto horse blood agar and incubated O/N at 37° C. with 5% CO2. The CFU was calculated and compared to the initial plate counts. Antibiotic disks (Purchased from Sigma Aldrich) were placed using a disk dispenser (Purchased from Oxoid) according to CLSI standards. MHSBA plates were incubated for 16 h-24 h at 37° C. in 5% CO2. Zones of complete inhibition were measured in triplicate to the nearest millimeter using a ruler on natural light-reflected growth, and the mode was represented as the diameter for each isolate. Pneumococcal isolates were categorised as sensitive, intermediate (I) or resistant (R) by CLSI standards and quality control (QC) ranges (Table 16).

The subject of assay [2] is Staphylococcus pseudintermedius isolates (MSSP and MRSP). Description: Disk diffusion and Epsilometer susceptibility testing, Example 6. It is filed as cell-based.
The mark [3] stands for this setting: Methicillin-susceptible staphylococci (n = 10).

For the molecule `CC1=C(C(=O)O)N2C(=O)[C@@H](NC(=O)[C@H](N)c3ccccc3)[C@H]2SC1` [Cephalexin], the “isolates resistant (Kirby-Bauer disc diffusion)” value is 20.00% in assay [1] (CA-MRSA (n = 10)), 80.00% in assay [1] (HA-MRSA (n = 10)) and 10.00% in assay [1] (setting [3]). Moreover, the “Total isolates resistant (Kirby-Bauer disc diffusion)” value (“Total isolates resistant” for short) in assay [1] is reported as 40.00%.

Turning to `CCC[C@@H]1C[C@@H](C(=O)N[C@@H]([C@H]2O[C@H](SC)[C@H](O)[C@@H](O)[C@H]2O)[C@H](C)Cl)N(C)C1` [Clindamycin], the “isolates resistant (Kirby-Bauer disc diffusion)” value is recorded as 50.00% in assay [1] (CA-MRSA (n = 10)), 50.00% in assay [1] (HA-MRSA (n = 10)) and 30.00% in assay [1] (setting [3]). Moreover, the “Total isolates resistant” value in assay [1] and in assay [1] (listed as clindamycin) was 43.33% each time. The “disk diffusion zone diameter” value with S. pneumoniae isolates (A66.1) is 34 mm; in the assay on S. pneumoniae isolates (D39), 27 mm; in the assay on S. pneumoniae isolates (EF3030), 26 mm; in the assay on S. pneumoniae isolates (L82016), 32 mm; in the assay with S. pneumoniae isolates (P9), 31 mm; in the assay with S. pneumoniae isolates (P21), 25 mm. In addition, the “disk diffusion zone diameter” value in the assay on S. pneumoniae isolates (TIGR4) was determined as 28 mm; in the assay with S. pneumoniae isolates (WCH16) it was 28 mm; in the assay on S. pneumoniae isolates (WCH43) it was 22 mm; in the assay on S. pneumoniae isolates (WCH46), 30 mm; in the assay on S. pneumoniae isolates (WCH57) it was 34 mm; with S. pneumoniae isolates (WCH77), 28 mm. Also, the “disk diffusion zone diameter” value in the assay with S. pneumoniae isolates (WCH86) was 30 mm; with S. pneumoniae isolates (WCH89), 27 mm; in the assay on S. pneumoniae isolates (WCH92) it was 24 mm; with S. pneumoniae isolates (WCH137) it was 26 mm; in the assay on S. pneumoniae isolates (WCH158) it was 32 mm; in the assay on S. pneumoniae isolates (WCH184), 10 mm. Besides, the “disk diffusion zone diameter” value with S. pneumoniae isolates (WCH211) and in the assay on S. pneumoniae isolates (WU2) was 27 mm each time. Moreover, the “disk diffusion susceptibility category” value with S. pneumoniae isolates (WCH184 (Table 18)) is “R”.

As for `CC1(C)S[C@@H]2[C@H](NC(=O)Cc3ccccc3)C(=O)N2[C@H]1C(=O)O` [Penicillin-G], the “isolates resistant (Kirby-Bauer disc diffusion)” value in assay [1] (CA-MRSA (n = 10)) turned out to be 100.00%; in assay [1] (HA-MRSA (n = 10)), 100.00%; in assay [1] (setting [3]), 50.00%. Also, the “Total isolates resistant” value in assay [1] and in assay [1] (listed as penicillin-G) was 83.33% each time.

For `CO[C@H]1/C=C/O[C@@]2(C)Oc3c(C)c(O)c4c(O)c(c(/C=N/N5CCN(C)CC5)c(O)c4c3C2=O)NC(=O)/C(C)=C\C=C\[C@H](C)[C@H](O)[C@@H](C)[C@@H](O)[C@@H](C)[C@H](OC(C)=O)[C@@H]1C` [Rifampicin], the figures for the “isolates resistant (Kirby-Bauer disc diffusion)” value in assay [1] (CA-MRSA (n = 10)), in assay [1] (HA-MRSA (n = 10)) and in assay [1] (setting [3]) were 0.00%, 10.00% and 0.00%, respectively. Also, the “Total isolates resistant” value in assay [1] and in assay [1] (listed as rifampicin) was 3.33% throughout. Also, the “disk diffusion zone diameter” value in the assay with S. pneumoniae isolates (A66.1) amounted to 32 mm; in the assay on S. pneumoniae isolates (D39) it was 28 mm; in the assay on S. pneumoniae isolates (EF3030), 32 mm; in the assay on S. pneumoniae isolates (L82016) it was 26 mm; in the assay on S. pneumoniae isolates (P9), 27 mm; in the assay on S. pneumoniae isolates (P21), 32 mm. The “disk diffusion zone diameter” value in the assay with S. pneumoniae isolates (TIGR4) is recorded as 30 mm; with S. pneumoniae isolates (WCH16), 30 mm; in the assay on S. pneumoniae isolates (WCH43) it was 27 mm; in the assay on S. pneumoniae isolates (WCH46), 29 mm; in the assay with S. pneumoniae isolates (WCH57) it was 38 mm; in the assay with S. pneumoniae isolates (WCH77), 33 mm. Moreover, the “disk diffusion zone diameter” value worked out at 31 mm in the assay with S. pneumoniae isolates (WCH86); 32 mm in the assay on S. pneumoniae isolates (WCH89); 22 mm in the assay with S. pneumoniae isolates (WCH92); 30 mm with S. pneumoniae isolates (WCH137); 34 mm in the assay on S. pneumoniae isolates (WCH158); 32 mm in the assay with S. pneumoniae isolates (WCH184). In addition, the “disk diffusion zone diameter” value stood at 32 mm in the assay with S. pneumoniae isolates (WCH211) and 31 mm in the assay on S. pneumoniae isolates (WU2).

For the molecule `CO[C@@]1(NC(=O)Cc2cccs2)C(=O)N2C(C(=O)O)=C(COC(N)=O)CS[C@@H]21` [cefoxitin], the MRSP isolates susceptible is 7.7% in assay [2] (13 MRSP, cefoxitin resistance break point set at ≤30 mm); 23% and 38% in assay [2] (13 MRSP, cefoxitin resistance breakpoint set at ≤24 mm). In addition, the ZD in assay [2] (isolate S1P1) is on record as 0 mm; in assay [2] (isolate S2P2) it was 21 mm; in assay [2] (isolate S3P3), 21 mm; in assay [2] (isolate S4P4), 29 mm; in assay [2] (isolate S5P5), 26 mm; in assay [2] (isolate S6P6) it was 22 mm. For the same molecule, the ZD in assay [2] (isolate S7P7) is given as 21 mm; in assay [2] (isolate S8P8) it was 21 mm; in assay [2] (isolate S9P9), 23 mm; in assay [2] (isolate S10P10), 21 mm; in assay [2] (isolate S11P11) it was 22 mm; in assay [2] (isolate S12P12), 24 mm. For the same molecule, the ZD in assay [2] (isolate S13P13) stood at 36 mm; in assay [2] (isolate S14P14), 34 mm; in assay [2] (isolate S15P15) it was 33 mm; in assay [2] (isolate S16P16) it was 38 mm; in assay [2] (isolate S17P17), 36 mm; in assay [2] (isolate S18P18), 25 mm. Besides, the ZD in assay [2] (isolate S19P19) was found to be 36 mm; in assay [2] (isolate S20P20) it was 38 mm; in assay [2] (isolate S21P21), 36 mm; in assay [2] (isolate S22P22), 34 mm; in assay [2] (isolate S23P23) it was 29 mm. Further, the “ZD, Adl” value amounted to 0 mm in assay [2] (isolate S1P1); 21 mm in assay [2] (isolate S2P2); 24 mm in assay [2] (isolate S3P3); 20 mm in assay [2] (isolate S4P4); 30 mm in assay [2] (isolate S5P5); 26 mm in assay [2] (isolate S6P6). Besides, the “ZD, Adl” value amounted to 19 mm in assay [2] (isolate S7P7); 22 mm in assay [2] (isolate S8P8); 26 mm in assay [2] (isolate S9P9); 25 mm in assay [2] (isolate S10P10); 21 mm in assay [2] (isolate S11P11); 24 mm in assay [2] (isolate S12P12). Further, the “ZD, Adl” value in assay [2] (isolate S13P13) worked out at 40 mm; in assay [2] (isolate S14P14), 32 mm; in assay [2] (isolate S15P15), 34 mm; in assay [2] (isolate S16P16) it was 42 mm; in assay [2] (isolate S17P17), 38 mm; in assay [2] (isolate S18P18), 40 mm. Besides, the “ZD, Adl” value in assay [2] (isolate S19P19) was found to be 38 mm; in assay [2] (isolate S20P20), 36 mm; in assay [2] (isolate S21P21), 40 mm; in assay [2] (isolate S22P22), 35 mm; in assay [2] (isolate S23P23), 26 mm.

As for `CC(=O)OCC1=C(C(=O)O)N2C(=O)[C@@H](NC(=O)Cc3cccs3)[C@H]2SC1` [cephalothin], the MRSP isolates susceptible in assay [2] (13 MRSP isolates) is given as 62%.

Consider `COc1c(N2C[C@@H]3CCCN[C@@H]3C2)c(F)cc2c(=O)c(C(=O)O)cn(C3CC3)c12` [moxifloxacin], for which, in assay [2] (13 MRSP isolates), the MRSP isolates susceptible is 92%.
